Experimental data: patent US10894787B2, “Modulators of the GPR119 receptor and the treatment of disorders related thereto” (Arena Pharmaceuticals, Inc., priority 2010, dated 2021)

Test: Dynamic moisture-sorption (DMS) analysis
Assay type: physicochemical
Conditions: at about 90% RH and 25° C.
Description: A dynamic moisture-sorption (DMS) study was conducted using a dynamic moisture-sorption analyzer, VTI Corporation, SGA-100. Samples were prepared for DMS analysis by placing 5 mg to 20 mg of a sample in a tared sample holder. The sample was placed on the hang-down wire of the VTI balance. A drying step was run, typically at 40° C. and 0.5-1% RH for 1 h. The isotherm temperature is 25° C. Defined % RH holds typically ranged from 10% RH to 90% RH, with intervals of 10 to 20% RH. A % weight change smaller than 0.010% over 10 min, or up to 2 h, whichever occurred first, was required before continuing to the next % RH hold. The water content of the sample equilibrated as described above was determined at each % RH hold.

SMILES: CN(C)C(=O)c1ccc(Nc2ncnc(N3CCC(c4nc(C(C)(C)F)no4)CC3)c2F)c(F)c1 [Compound 1 (Anhydrous Form), 3-fluoro-4-(5-fluoro-6-(4-(3-(2-fluoropropan-2-yl)-1,2,4-oxadiazol-5-yl)piperidin-1-yl)pyrimidin-4-ylamino)-N,N-dimethylbenzamide]
- DMS weight gain: FIG. 8: Less than about 0.35% weight gain at about 90% RH
